Consider 2 compounds from patent publication US10321682B2, “Pesticidal aryl pyrrole nitrile compound, preparation method for same, uses thereof, agricultural pesticide, and pest control method” (HENAN GOODDAYS BIOLOGY DEVELOPMENT CO., LTD., priority 2016, dated 2019).

As a reminder, the LD50 is the dose at which mortality reaches 50%. Higher therefore signals a less toxic substance. As a reminder, the LC50 is the concentration lethal to half of the exposed cells or organisms.

In brackets after ≈: the same amount, converted by molar mass. Where two headings read alike, the source gives them in different places.

Data set [1] in a line: Acute oral toxicity in rats. As to conditions: both sexes, rat, in vivo, both female rats and male rats.
Data set [2] can be described thus: Acute percutaneous toxicity in rats. As to conditions: both sexes, rat, in vivo, topical; both female rats and male rats.
Data set [3] can be described thus: Toxicity to Japanese carp. The note with it: in vivo.
A further data set has as its system rats. As to conditions: cited from earlier work.

Regarding `N#Cc1c(Br)c(C(F)(F)F)n(Cc2cnc(Cl)s2)c1-c1ccc(Cl)cc1` [4-bromo-2-(4-chlorophenyl)-1-(2-chloro-5-thiazolylmethyl)-5-trifluoromethylpyrrole-3-carbonitrile], the LD50 was greater than 5000 mg/kg in data set [1] and greater than 2000 mg/kg in data set [2]. In addition, in data set [3], the LC50 is 2.5 µg/mL (≈ 5.2 µM).

Take `CCOCn1c(-c2ccc(Cl)cc2)c(C#N)c(Br)c1C(F)(F)F` [Chujin, 4-bromo-2-(4-chlorophenyl)-1-ethoxymethyl-5-trifluoromethylpyrrole-3-carbonitrile]: the “acute oral LD50” value was 459 mg/kg in the data set on rats (female rats) and 223 mg/kg in the data set on rats (male rats).
